# Source: ChEMBL document CHEMBL5303573, “Mapping human microbiome drug metabolism by gut bacteria and their genes” (Nature, 2019)
# Assays:
# [1] = The drug is tested on Enterococcus faecalis strain: V583 for biotransformation. The drug concentrations were measured before and after a 12-h incubation by liquid-chromatography-coupled mass spectrometry (LC–MS); conditions: 2 µM
# [2] = parabacteroides johnsonii, 12 h, 2 µM
# [3] = The drug is tested on Eubacterium hallii strain: DSM3353 for biotransformation. The drug concentrations were measured before and after a 12-h incubation by liquid-chromatography-coupled mass spectrometry (LC–MS); conditions: anaerobutyricum hallii, 2 µM
# [4] = The drug is tested on Parabacteroides merdae strain: ATCC43184 for biotransformation. The drug concentrations were measured before and after a 12-h incubation by liquid-chromatography-coupled mass spectrometry (LC–MS); conditions: 2 µM
# [5] = bacteroides thetaiotaomicron, 12 h, 2 µM
# [6] = bifidobacterium adolescentis, 12 h, 2 µM
# [7] = The drug is tested on Providencia stuartii strain: ATCC25827 for biotransformation. The drug concentrations were measured before and after a 12-h incubation by liquid-chromatography-coupled mass spectrometry (LC–MS); conditions: 2 µM
# [8] = The drug is tested on Bacteroides coprophilus strain: DSM18228 for biotransformation. The drug concentrations were measured before and after a 12-h incubation by liquid-chromatography-coupled mass spectrometry (LC–MS); conditions: 2 µM
# [9] = The drug is tested on Bacteroides fragilis strain: ATCC43859 for biotransformation. The drug concentrations were measured before and after a 12-h incubation by liquid-chromatography-coupled mass spectrometry (LC–MS); conditions: 2 µM
# [10] = The drug is tested on Clostridium scindens strain: ATCC35704 for biotransformation. The drug concentrations were measured before and after a 12-h incubation by liquid-chromatography-coupled mass spectrometry (LC–MS); conditions: 2 µM
# [11] = The drug is tested on Alistipes indistinctus strain: DSM22520 for biotransformation. The drug concentrations were measured before and after a 12-h incubation by liquid-chromatography-coupled mass spectrometry (LC–MS); conditions: 2 µM
# [12] = The drug is tested on Collinsella aerofaciens strain: ATCC25986 for biotransformation. The drug concentrations were measured before and after a 12-h incubation by liquid-chromatography-coupled mass spectrometry (LC–MS); conditions: 2 µM
# [13] = The drug is tested on Clostridium sporogenes strain: ATCC15579 for biotransformation. The drug concentrations were measured before and after a 12-h incubation by liquid-chromatography-coupled mass spectrometry (LC–MS); conditions: 2 µM
# [14] = enterocloster bolteae, 12 h, 2 µM
# [15] = The drug is tested on Ruminococcus gnavus strain: ATCC29149 for biotransformation. The drug concentrations were measured before and after a 12-h incubation by liquid-chromatography-coupled mass spectrometry (LC–MS); conditions: mediterraneibacter gnavus, 2 µM
# [16] = bacteroides fragilis, 12 h, 2 µM
# [17] = The drug is tested on Ruminococcus lactaris strain: ATCC29176 for biotransformation. The drug concentrations were measured before and after a 12-h incubation by liquid-chromatography-coupled mass spectrometry (LC–MS); conditions: 2 µM
# [18] = The drug is tested on Eubacterium ventriosum strain: ATCC27560 for biotransformation. The drug concentrations were measured before and after a 12-h incubation by liquid-chromatography-coupled mass spectrometry (LC–MS); format: ADME; set-up: dose 2 uM, timepoint 0 vs 12 hours; conditions: 2 µM
# [19] = The drug is tested on Escherichia coli strain: BW25113 for biotransformation. The drug concentrations were measured before and after a 12-h incubation by liquid-chromatography-coupled mass spectrometry (LC–MS); conditions: 2 µM
# [20] = The drug is tested on Clostridium ramosum strain: DSM1402 for biotransformation. The drug concentrations were measured before and after a 12-h incubation by liquid-chromatography-coupled mass spectrometry (LC–MS); conditions: thomasclavelia ramosa, 2 µM
smiles,measurement,setting,value
CC(C)(C(=O)O)c1ccc(C(O)CCCN2CCC(C(O)(c3ccccc3)c3ccccc3)CC2)cc1 (stereo not drawn) [FEXOFENADINE],Bacterial Biotransformation,[1],Compound NOT metabolized
same,Bacterial Biotransformation,[2],Compound NOT metabolized
same,Bacterial Biotransformation,[3],Compound NOT metabolized
same,Bacterial Biotransformation,[4],Compound NOT metabolized
same,Bacterial Biotransformation,[5],Compound NOT metabolized
same,Bacterial Biotransformation,[6],Compound NOT metabolized
same,Bacterial Biotransformation,[7],Compound NOT metabolized
same,Bacterial Biotransformation,[8],Compound NOT metabolized
same,Bacterial Biotransformation,[9],Compound NOT metabolized
same,Bacterial Biotransformation,[10],Compound NOT metabolized
same,Bacterial Biotransformation,[11],Compound NOT metabolized
same,Bacterial Biotransformation,[12],Compound NOT metabolized
same,Bacterial Biotransformation,[13],Compound NOT metabolized
same,Bacterial Biotransformation,[14],Compound NOT metabolized
same,Bacterial Biotransformation,[15],Compound NOT metabolized
same,Bacterial Biotransformation,[16],Compound NOT metabolized
O=C(O)CCc1nc(-c2ccccc2)c(-c2ccccc2)o1 [OXAPROZIN],Bacterial Biotransformation,[1],Compound NOT metabolized
same,Bacterial Biotransformation,[2],Compound metabolized
same,Bacterial Biotransformation,[3],Compound NOT metabolized
same,Bacterial Biotransformation,[4],Compound NOT metabolized
same,Bacterial Biotransformation,[5],Compound metabolized
same,Bacterial Biotransformation,[6],Compound NOT metabolized
same,Bacterial Biotransformation,[7],Compound NOT metabolized
same,Bacterial Biotransformation,[8],Compound NOT metabolized
same,Bacterial Biotransformation,[9],Compound metabolized
same,Bacterial Biotransformation,[10],Compound NOT metabolized
same,Bacterial Biotransformation,[11],Compound NOT metabolized
same,Bacterial Biotransformation,[12],Compound NOT metabolized
same,Bacterial Biotransformation,[13],Compound NOT metabolized
same,Bacterial Biotransformation,[17],Compound NOT metabolized
same,Bacterial Biotransformation,[18],Compound NOT metabolized
same,Bacterial Biotransformation,[14],Compound NOT metabolized
same,Bacterial Biotransformation,[15],Compound NOT metabolized
same,Bacterial Biotransformation,[16],Compound metabolized
Cc1ccc(NC(=O)c2ccc(CN3CCN(C)CC3)cc2)cc1Nc1nccc(-c2cccnc2)n1 [IMATINIB],Bacterial Biotransformation,[1],Compound NOT metabolized
same,Bacterial Biotransformation,[2],Compound NOT metabolized
same,Bacterial Biotransformation,[4],Compound NOT metabolized
same,Bacterial Biotransformation,[5],Compound NOT metabolized
same,Bacterial Biotransformation,[6],Compound NOT metabolized
same,Bacterial Biotransformation,[7],Compound NOT metabolized
same,Bacterial Biotransformation,[8],Compound NOT metabolized
same,Bacterial Biotransformation,[9],Compound NOT metabolized
same,Bacterial Biotransformation,[11],Compound NOT metabolized
same,Bacterial Biotransformation,[12],Compound NOT metabolized
same,Bacterial Biotransformation,[17],Compound NOT metabolized
same,Bacterial Biotransformation,[18],Compound NOT metabolized
same,Bacterial Biotransformation,[14],Compound NOT metabolized
same,Bacterial Biotransformation,[15],Compound NOT metabolized
CC(=O)OCC(CCn1cnc2cnc(N)nc21)COC(C)=O [FAMCICLOVIR],Bacterial Biotransformation,[2],Compound metabolized
same,Bacterial Biotransformation,[3],Compound NOT metabolized
same,Bacterial Biotransformation,[4],Compound metabolized
same,Bacterial Biotransformation,[5],Compound metabolized
same,Bacterial Biotransformation,[7],Compound NOT metabolized
same,Bacterial Biotransformation,[8],Compound metabolized
same,Bacterial Biotransformation,[9],Compound metabolized
same,Bacterial Biotransformation,[10],Compound NOT metabolized
same,Bacterial Biotransformation,[11],Compound metabolized
same,Bacterial Biotransformation,[12],Compound NOT metabolized
same,Bacterial Biotransformation,[13],Compound NOT metabolized
same,Bacterial Biotransformation,[17],Compound NOT metabolized
same,Bacterial Biotransformation,[18],Compound NOT metabolized
same,Bacterial Biotransformation,[14],Compound NOT metabolized
same,Bacterial Biotransformation,[15],Compound NOT metabolized
same,Bacterial Biotransformation,[16],Compound metabolized
Cc1ccnc2c1NC(=O)c1cccnc1N2C1CC1 [NEVIRAPINE],Bacterial Biotransformation,[1],Compound NOT metabolized
same,Bacterial Biotransformation,[2],Compound NOT metabolized
same,Bacterial Biotransformation,[3],Compound NOT metabolized
same,Bacterial Biotransformation,[4],Compound NOT metabolized
same,Bacterial Biotransformation,[5],Compound NOT metabolized
same,Bacterial Biotransformation,[6],Compound NOT metabolized
same,Bacterial Biotransformation,[7],Compound NOT metabolized
same,Bacterial Biotransformation,[8],Compound NOT metabolized
same,Bacterial Biotransformation,[9],Compound NOT metabolized
same,Bacterial Biotransformation,[10],Compound NOT metabolized
same,Bacterial Biotransformation,[11],Compound NOT metabolized
same,Bacterial Biotransformation,[12],Compound NOT metabolized
same,Bacterial Biotransformation,[13],Compound NOT metabolized
same,Bacterial Biotransformation,[17],Compound NOT metabolized
same,Bacterial Biotransformation,[18],Compound NOT metabolized
same,Bacterial Biotransformation,[14],Compound NOT metabolized
same,Bacterial Biotransformation,[15],Compound NOT metabolized
same,Bacterial Biotransformation,[16],Compound NOT metabolized
Nc1nc(N)nc(-c2cc(Cl)ccc2Cl)n1.O=C(O)/C=C\C(=O)O [IRSOGLADINE MALEATE],Bacterial Biotransformation,[1],Compound NOT metabolized
same,Bacterial Biotransformation,[2],Compound metabolized
same,Bacterial Biotransformation,[3],Compound NOT metabolized
same,Bacterial Biotransformation,[4],Compound NOT metabolized
same,Bacterial Biotransformation,[5],Compound NOT metabolized
same,Bacterial Biotransformation,[6],Compound NOT metabolized
same,Bacterial Biotransformation,[7],Compound NOT metabolized
same,Bacterial Biotransformation,[8],Compound NOT metabolized
same,Bacterial Biotransformation,[9],Compound NOT metabolized
same,Bacterial Biotransformation,[10],Compound NOT metabolized
same,Bacterial Biotransformation,[11],Compound NOT metabolized
same,Bacterial Biotransformation,[12],Compound NOT metabolized
same,Bacterial Biotransformation,[13],Compound NOT metabolized
same,Bacterial Biotransformation,[17],Compound NOT metabolized
same,Bacterial Biotransformation,[18],Compound NOT metabolized
same,Bacterial Biotransformation,[14],Compound NOT metabolized
same,Bacterial Biotransformation,[15],Compound NOT metabolized
same,Bacterial Biotransformation,[16],Compound NOT metabolized
COCCCC/C(=N\OCCN)c1ccc(C(F)(F)F)cc1.O=C(O)/C=C\C(=O)O [FLUVOXAMINE MALEATE],Bacterial Biotransformation,[1],Compound NOT metabolized
same,Bacterial Biotransformation,[2],Compound NOT metabolized
same,Bacterial Biotransformation,[3],Compound NOT metabolized
same,Bacterial Biotransformation,[5],Compound metabolized
same,Bacterial Biotransformation,[6],Compound NOT metabolized
same,Bacterial Biotransformation,[7],Compound NOT metabolized
same,Bacterial Biotransformation,[8],Compound metabolized
same,Bacterial Biotransformation,[9],Compound NOT metabolized
same,Bacterial Biotransformation,[10],Compound NOT metabolized
same,Bacterial Biotransformation,[11],Compound NOT metabolized
same,Bacterial Biotransformation,[12],Compound NOT metabolized
same,Bacterial Biotransformation,[19],Compound NOT metabolized
same,Bacterial Biotransformation,[17],Compound NOT metabolized
same,Bacterial Biotransformation,[18],Compound NOT metabolized
same,Bacterial Biotransformation,[15],Compound NOT metabolized
Cc1ccccc1C(OCCN(C)C)c1ccccc1.O=C(O)CC(O)(CC(=O)O)C(=O)O (stereo not drawn) [ORPHENADRINE CITRATE],Bacterial Biotransformation,[1],Compound NOT metabolized
same,Bacterial Biotransformation,[2],Compound NOT metabolized
same,Bacterial Biotransformation,[3],Compound NOT metabolized
same,Bacterial Biotransformation,[4],Compound NOT metabolized
same,Bacterial Biotransformation,[5],Compound NOT metabolized
same,Bacterial Biotransformation,[7],Compound NOT metabolized
same,Bacterial Biotransformation,[8],Compound NOT metabolized
same,Bacterial Biotransformation,[9],Compound NOT metabolized
same,Bacterial Biotransformation,[10],Compound NOT metabolized
same,Bacterial Biotransformation,[11],Compound NOT metabolized
same,Bacterial Biotransformation,[12],Compound NOT metabolized
same,Bacterial Biotransformation,[13],Compound NOT metabolized
same,Bacterial Biotransformation,[17],Compound NOT metabolized
same,Bacterial Biotransformation,[15],Compound NOT metabolized
CCN(CC)C(=O)C1(c2ccccc2)CC1CN (stereo not drawn),Bacterial Biotransformation,[1],Compound NOT metabolized
same,Bacterial Biotransformation,[2],Compound NOT metabolized
same,Bacterial Biotransformation,[3],Compound NOT metabolized
same,Bacterial Biotransformation,[4],Compound NOT metabolized
same,Bacterial Biotransformation,[5],Compound NOT metabolized
same,Bacterial Biotransformation,[6],Compound NOT metabolized
same,Bacterial Biotransformation,[7],Compound NOT metabolized
same,Bacterial Biotransformation,[8],Compound NOT metabolized
same,Bacterial Biotransformation,[9],Compound NOT metabolized
same,Bacterial Biotransformation,[10],Compound NOT metabolized
same,Bacterial Biotransformation,[12],Compound NOT metabolized
same,Bacterial Biotransformation,[19],Compound NOT metabolized
same,Bacterial Biotransformation,[13],Compound NOT metabolized
same,Bacterial Biotransformation,[17],Compound NOT metabolized
same,Bacterial Biotransformation,[20],Compound NOT metabolized
same,Bacterial Biotransformation,[18],Compound NOT metabolized
same,Bacterial Biotransformation,[14],Compound NOT metabolized
same,Bacterial Biotransformation,[15],Compound NOT metabolized
same,Bacterial Biotransformation,[16],Compound NOT metabolized
